Reference: patent US20240299352A1, “COMBINATION THERAPIES WITH SETD2 INHIBITORS” (Epizyme, Inc., priority 2021, published 2024)

Experiments:
[1] = system: DB; experiment: Co-treatment combination study with Cpd. No. 15, CellTiter-Glo viability, Loewe Volume; format: cell-based; conditions: in combination with Cpd. No. 15, seven days, DLBCL cell line DB
Method: (§1) Mantle cell lymphoma (MCL) and diffuse large B-cell lymphoma (DLBCL) cell line cultures in log-linear growth rate were treated with combinations of Cpd. No. 15 and combination partners according to a co-treatment model. […] No. 15 and the combination partner. […] Each combination was tested in quadruplicate wells. The final concentration of DMSO (vehicle) in the assay was 0.1% v/v. Fifty microliters of cell line suspension were directly dispensed to the assay-ready plates with an automated multichannel dispenser on to 384-well assay-ready plates. Assay plates were incubated for seven days unless otherwise indicated in a humidified atmosphere of 5% CO2 at 37° C. Quantification of the effect of single agents or combinations on cell viability was performed through measurement of cellular adenosine triphosphate (ATP) using a CellTiter-Glo® (Promega, Madison, WI) Luminescent Cell Viability Assay. Luminescence was detected using a SpectraMax M5 microplate reader (Molecular Devices, Sunnyvale, CA). Concentration response plots were generated in GraphPad Prism version 7.0 for Windows, GraphPad Software, (La Jolla, California) and curves fitted to a four-parameter logistic model with variable slope. Percent of inhibition was calculated at each treatment concentration.

[2] = system: DOHH2; experiment: as above; format: cell-based; conditions: in combination with Cpd. No. 15, seven days, DLBCL cell line DOHH2
Method: as §1

[3] = system: HT; experiment: as above; format: cell-based; conditions: in combination with Cpd. No. 15, seven days, DLBCL cell line HT
Method: as §1

[4] = system: KARPAS422; experiment: as above; format: cell-based; conditions: in combination with Cpd. No. 15, seven days, DLBCL cell line KARPAS422
Method: as §1

[5] = system: Pfeiffer; experiment: as above; format: cell-based; conditions: in combination with Cpd. No. 15, seven days, DLBCL cell line Pfeiffer
Method: as §1

[6] = system: RL; experiment: as above; format: cell-based; conditions: in combination with Cpd. No. 15; 6-Day Cotreatment; DLBCL cell line RL
Method: as §1

[7] = system: SUDHL10; experiment: as above; format: cell-based; conditions: in combination with Cpd. No. 15; 5-Day Cotreatment; DLBCL cell line SUDHL10
Method: as §1

[8] = system: SUDHL2; experiment: as above; format: cell-based; conditions: in combination with Cpd. No. 15, seven days, DLBCL cell line SUDHL2
Method: as §1

[9] = system: SUDHL4; experiment: as above; format: cell-based; conditions: in combination with Cpd. No. 15, seven days, DLBCL cell line SUDHL4
Method: as §1

[10] = system: SUDHL5; experiment: as above; format: cell-based; conditions: in combination with Cpd. No. 15, seven days, DLBCL cell line SUDHL5
Method: as §1

[11] = system: SUDHL6; experiment: as above; format: cell-based; conditions: in combination with Cpd. No. 15, seven days, DLBCL cell line SUDHL6
Method: as §1

[12] = system: SUDHL8; experiment: as above; format: cell-based; conditions: in combination with Cpd. No. 15, seven days, DLBCL cell line SUDHL8
Method: as §1

[13] = system: TOLEDO; experiment: as above; format: cell-based; conditions: in combination with Cpd. No. 15, seven days, DLBCL cell line TOLEDO
Method: as §1

[14] = system: WILL2; experiment: as above; format: cell-based; conditions: in combination with Cpd. No. 15, seven days, DLBCL cell line WILL2
Method: as §1

[15] = system: WSUDLCL2; experiment: as above; format: cell-based; conditions: in combination with Cpd. No. 15, seven days, DLBCL cell line WSUDLCL2
Method: as §1

[16] = system: WSUNHL; experiment: as above; format: cell-based; conditions: in combination with Cpd. No. 15, seven days, DLBCL cell line WSUNHL
Method: as §1

[17] = system: diffuse large B-cell lymphoma (DLBCL) cell lines; experiment: Co-treatment combination study with Cpd. No. 15, further cell lines (Table F), CellTiter-Glo viability, Loewe Volume; format: cell-based
Method: as §1

[18] = system: diffuse large B-cell lymphoma (DLBCL) cell lines; experiment: Pre-treatment model combination study with Cpd. No. 15 (7 days pre-treatment, then combination; Table G), CellTiter-Glo viability, Loewe Volume; conditions: 7 days pre-treatment with Cpd. No. 15, then combination
[19] = system: GRANTA519; experiment: Co-treatment combination study with Cpd. No. 15, CellTiter-Glo viability, Loewe Volume; format: cell-based; conditions: in combination with Cpd. No. 15, seven days, mantle cell lymphoma cell line GRANTA519 (ACC 342)
Method: as §1

[20] = system: JEKO1; experiment: as above; format: cell-based; conditions: in combination with Cpd. No. 15, seven days, mantle cell lymphoma cell line JEKO1 (CRL-3006)
Method: as §1

[21] = system: JVM2; experiment: as above; format: cell-based; conditions: in combination with Cpd. No. 15, seven days, mantle cell lymphoma cell line JVM2 (CRL-3002)
Method: as §1

[22] = system: MAVER1; experiment: as above; format: cell-based; conditions: in combination with Cpd. No. 15, seven days, mantle cell lymphoma cell line MAVER1 (CRL-3008)
Method: as §1

[23] = system: MINO; experiment: as above; format: cell-based; conditions: in combination with Cpd. No. 15, seven days, mantle cell lymphoma cell line MINO (CRL-3000)
Method: as §1

[24] = system: REC1; experiment: as above; format: cell-based; conditions: in combination with Cpd. No. 15, seven days, mantle cell lymphoma cell line REC1 (CRL-3004)
Method: as §1

[25] = system: Z138; experiment: as above; format: cell-based; conditions: in combination with Cpd. No. 15, seven days, mantle cell lymphoma cell line Z138 (CRL-3001)
Method: as §1

Structure (SMILES)	Combination effect (Loewe Volume) DB [1]	Combination effect (Loewe Volume) DOHH2 [2]	Combination effect (Loewe Volume) HT [3]	Combination effect (Loewe Volume) KARPAS422 [4]	Combination effect (Loewe Volume) Pfeiffer [5]	Combination effect (Loewe Volume) RL [6]	Combination effect (Loewe Volume) SUDHL10 [7]	Combination effect (Loewe Volume) SUDHL2 [8]	Combination effect (Loewe Volume) SUDHL4 [9]	Combination effect (Loewe Volume) SUDHL5 [10]	Combination effect (Loewe Volume) SUDHL6 [11]	Combination effect (Loewe Volume) SUDHL8 [12]	Combination effect (Loewe Volume) TOLEDO [13]	Combination effect (Loewe Volume) WILL2 [14]	Combination effect (Loewe Volume) WSUDLCL2 [15]	Combination effect (Loewe Volume) WSUNHL [16]	also measured
Nc1ccn([C@@H]2O[C@H](CO)[C@@H](O)C2(F)F)c(=O)n1 [Gemcitabine, gemcitabine]	Additivity (between 1 and −1: additivity)	Additivity (between 1 and −1: additivity)	Additivity (between 1 and −1: additivity)	Additivity (between 1 and −1: additivity)	Additivity (between 1 and −1: additivity)	Additivity (between 1 and −1: additivity)	Additivity (between 1 and −1: additivity)	Additivity (between 1 and −1: additivity)	Additivity (between 1 and −1: additivity)	Additivity (between 1 and −1: additivity)	Additivity (between 1 and −1: additivity)	Additivity (between 1 and −1: additivity)	Additivity (between 1 and −1: additivity)	Additivity (between 1 and −1: additivity)	Additivity (between 1 and −1: additivity)	Additivity (between 1 and −1: additivity)	Combination effect with Cpd. No. 15 (Loewe Volume class), Ri1 ([17]; co-treatment with Cpd. No. 15, cell line Ri1 (Cat. No. 96090512-1VL)): Additivity (between 1 and −1: additivity); Combination effect with Cpd. No. 15 (Loewe Volume class), TMD8 ([17]; co-treatment with Cpd. No. 15, cell line TMD8 (Cat. No. M-097)): Additivity (between 1 and −1: additivity); Combination effect with Cpd. No. 15 (Loewe Volume class), WILL1 ([17]; co-treatment with Cpd. No. 15, cell line WILL1 (Cat. No. ACC 651)): Additivity (between 1 and −1: additivity); Combination effect with Cpd. No. 15 (Loewe Volume class), Farage ([18]; cell line Farage (Cat. No. CRL-2630)): Additivity (between 1 and −1: additivity); Combination effect with Cpd. No. 15 (Loewe Volume class), HT ([18]; cell line HT (Cat. No. CRL-2631)): Additivity (between 1 and −1: additivity); Combination effect with Cpd. No. 15 (Loewe Volume class), OCILY7 ([18]; cell line OCILY7 (Cat. No. ACC 688)): Additivity (between 1 and −1: additivity); Combination effect with Cpd. No. 15 (Loewe Volume class), SUDHL4 ([18]; cell line SUDHL4 (Cat. No. ACC 495)): Additivity (between 1 and −1: additivity); Combination effect with Cpd. No. 15 (Loewe Volume class), WILL2 ([18]; cell line WILL2 (Cat. No. ACC 652)): Additivity (between 1 and −1: additivity)
C=CC(=O)N1CCC[C@@H](n2nc(-c3ccc(Oc4ccccc4)cc3)c3c(N)ncnc32)C1 [Ibrutinib, ibrutinib]	No Effect	Synergy (VLoewe>1: synergy)	No Effect	No Effect	No Effect	Additivity (between 1 and −1: additivity)	No Effect	No Effect	Synergy (VLoewe>1: synergy)	No Effect	Synergy (VLoewe>1: synergy)	No Effect	No Effect	Additivity (between 1 and −1: additivity)	Additivity (between 1 and −1: additivity)	Additivity (between 1 and −1: additivity)	Combination effect (Loewe Volume) GRANTA519 [19]: Additivity (between 1 and −1: additivity); Combination effect (Loewe Volume) JEKO1 [20]: Synergy (VLoewe>1: synergy); Combination effect (Loewe Volume) JVM2 [21]: Additivity (between 1 and −1: additivity); Combination effect (Loewe Volume) MAVER1 [22]: Synergy (VLoewe>1: synergy); Combination effect (Loewe Volume) MINO [23]: Synergy (VLoewe>1: synergy); Combination effect (Loewe Volume) REC1 [24]: Additivity (between 1 and −1: additivity); Combination effect (Loewe Volume) Z138 [25]: No Effect
